Measured values taken from PMC11503492, “Activity-Based DNA-Encoded Library Screening for Selective Inhibitors of Eukaryotic Translation” (ACS Central Science, 2024).

Assays:
[1] = tested on: PCSK9[1:33]-GFP N-terminal deletions; assay: WG IVTT end point assay of PCSK9[1:33]-GFP N-terminal deletions; assay type: biochemical, wheat germ; details: deletion of 15 or more N-terminal residues, 100 μM PF846
Procedure: (C) PF846 dose–response IVTT activity assays of PCSK9[1:33]-GFP, PCSK9-FS[1:33]-GFP, RPL27[1:32]-GFP, and the GFP reporters and (D) end point assays (100 μM PF846) of PCSK9[1:33]-GFP N-terminal deletions were conducted to determine sensitivity to PF846 in WG IVTT (% activity relative to DMSO control).

[2] = tested on: PCSK9 expression in HepG2 cells; assay: HepG2 cellular assay, PCSK9 Western blot; assay type: cell-based; details: 16 h treatment, 5 or 50 µM, triplicate, normalized to DMSO
Procedure: Reaction buffer (1 µL) and template (0.5 µL) were added and reaction progress was
Relative activity was cal-
450 culated using the slope of fluorescence increase over time (15–30 min post reaction initia-
Gene blocks were purchased from IDT
Digestion with Sgf I and PmeI allowed for
Sequence-verified plasmids
460 were cloned into DH5α E. coli for standard large-scale DNA plasmid preparation.
Gene blocks were purchased
Digestion with NdeI and XhoI
470 (4.5 g/L high-glucose DMEM, 2 mM L-glutamine, 10% fetal bovine serum, 1% penicillin-
Cells were lysed (100 µL RIPA buffer,
Protein lysates (24 µg) were separated by denaturing polyacrylamide
480 PCSK9 rabbit monoclonal antibody, 5% BSA in PBS-T). The PCSK9 probed membrane
HRP-labeled bands were visualized
Figure S12. […] PCSK9 expression in HepG2 cells
treated 16 h with PF846 or screening hit 8 (5 or 50 µM) or vehicle control (DMSO) was analyzed in triplicate
(also on this page, place not known: S12894 GAPDH pro m DMSO 5 μM DMSO μM 5 μM 50 μM PCSK9 PF846 hit8 50)
(1 picture or pasted object on this page, not shown here)

[3] = tested on: PCSK9[1:33]-GFP translation; assay: Wheat germ lysate (WG) IVTT microplate activity assay, PCSK9[1:33]-GFP template; assay type: biochemical; details: WG IVTT
Source text: (§1) A commercially available wheat germ lysate (WG) IVTT system was employed to assay translation inhibition. Translation activity was detected via a GFP reporter, and the assay was miniaturized to picoliter-scale microfluidic droplets (Figure 1A,B). […] PCSK9 and RPL27 were truncated to the first 33 and 32 amino acids, respectively (PCSK9[1:33] and RPL27[1:32]). The sequences contain distinct PF846 stall sites and were both fused to a GFP reporter. The GFP reporter and a frameshift mutant of PCSK9[1:33] (PCSK9-FS[1:33]), which mutates the nascent chain sequence while maintaining a nearly identical mRNA sequence, were included as negative controls.[13] […] Sequence sensitivity was further confirmed by an N-terminal deletion series of PCSK9[1:33]-GFP; deletion of N-terminal residues increasingly ablated PCSK9[1:33]-GFP translation sensitivity to PF846 (Figure 1D). The WG IVTT assay was miniaturized using a previously described microfluidic circuit modified for longer incubation times (Figure S1)[27] using PF846 as a positive control compound, and assay statistical quality was calculated (Z′=0.7) (Figure 1E). To confirm detection of translation inhibition from library beads, hygromycin B, a nonselective aminoglycoside translation inhibitor, was coupled to beads displaying a photocleavable linker (PC-HygB). UV irradiation releases hygromycin from the bead, allowing it to interact with the WG IVTT assay in the droplet. PC-HygB bead photocleavage supernatant inhibited PCSK9[1:33]-GFP translation both in a microplate assay and in microfluidic droplets (Figure 1F,G, S2). Assay statistical quality using PC-HygB positive control beads was similarly calculated (Z′ = 0.75, Figure 1H). […]
(§2) 436 Microplate IVTT Assays
(§3) 437 Wheat germ lysate IVTT plate assays were prepared as 5 µL reactions. Wheat germ lysate
(§4) 438 (3 µL) was added to test compound or vehicle control (1 µL) in a 384-well black microplate
(§5) 439 and the reaction was incubated (10 min, RT). Template (1 µL) was added and reaction
(§6) 440 progress was immediately monitored (λex = 480 nm, λem = 530 nm, 27 °C, 2 h). Rela-
(§7) 441 tive activity was calculated using the slope of fluorescence increase over time (at 15–30
(§8) 442 min post reaction initiation) for compound samples relative to that of the DMSO vehicle
443 control. […]

GFP reporter translation = assay: WG IVTT activity assay, GFP reporter control; assay type: biochemical, wheat germ; details: negative control
Source text: as §1, with “To confirm detection of translation inhibition from library beads, hygromycin B, a nonselective aminoglycoside translation inhibitor, was coupled to beads displaying a photocleavable linker (PC-HygB). UV irradiation releases hygromycin from the bead, allowing it to interact with the WG IVTT assay in the droplet. PC-HygB bead photocleavage supernatant inhibited PCSK9[1:33]-GFP translation both in a microplate assay and in microfluidic droplets (Figure 1F,G, S2).” left out
(§9) 440 progress was immediately monitored (λex = 480 nm, λem = 530 nm, 27 °C, 2 h). […]
(§10) 441 tive activity was calculated using the slope of fluorescence increase over time (at 15–30 […]

[4] = tested on: RPL27[1:32]-GFP translation; assay: WG IVTT activity assay, RPL27[1:32]-GFP template; assay type: biochemical, wheat germ
Source text: A commercially available wheat germ lysate (WG) IVTT system was employed to assay translation inhibition. Translation activity was detected via a GFP reporter, and the assay was miniaturized to picoliter-scale microfluidic droplets (Figure 1A,B). […] PCSK9 and RPL27 were truncated to the first 33 and 32 amino acids, respectively (PCSK9[1:33] and RPL27[1:32]). The sequences contain distinct PF846 stall sites and were both fused to a GFP reporter. The GFP reporter and a frameshift mutant of PCSK9[1:33] (PCSK9-FS[1:33]), which mutates the nascent chain sequence while maintaining a nearly identical mRNA sequence, were included as negative controls.[13] […] The WG IVTT assay was miniaturized using a previously described microfluidic circuit modified for longer incubation times (Figure S1)[27] using PF846 as a positive control compound, and assay statistical quality was calculated (Z′=0.7) (Figure 1E). […] Assay statistical quality using PC-HygB positive control beads was similarly calculated (Z′ = 0.75, Figure 1H). […]
429 of encoding region identifiers was then determined using a UMI aggregation algorithm; […]
433 manually determined threshold (10) were discarded. […]
as §9, §10
Figure S11. […] Compound 8 (black) and PF846 (gray) were analyzed […]

[5] = tested on: PCSK9-FS[1:33]-GFP translation; assay: WG IVTT microplate activity assay, PCSK9-FS[1:33]-GFP frameshift counter template; assay type: biochemical, wheat germ
Source text: as §1, §2, §3, §4, §5, §6, §7, §8
443 control. All microplate experiments contained 25 ng/µL plasmid, except for assays with
445 respectively. HeLa lysate IVTT plate assays were prepared as 5.5 µL reactions. […]

[6] = tested on: MST1[1:39]-GFP translation; design: method as in PMID 28323820; details: cited from earlier work

Q: Which “PF846 activity on N-terminal deletions of PCSK9[1:33]-GFP (in words)” value [1] does the source give for O=C(c1ccc(-n2nnc3cccnc32)cc1)N(c1ncccc1Cl)[C@@H]1CCCNC1 [PF846, PF-06446846, reference compound] here?
A: completely eliminates PF846 activity

Q: What about the “PCSK9 protein levels in HepG2 cells (in words)” value [2] of the same compound?
A: significantly reduced

Q: What about the “inhibition of PCSK9[1:33]-GFP translation (in words)” value [3] of the same compound?
A: inhibited the translation

Q: And the IC50 ([3]; PCSK9[1:33]-GFP template, triplicate, ± standard deviation of the mean)?
A: 3.9 ± 0.8 µM

Q: And the “activity on GFP reporter control translation (in words)” value (GFP reporter translation)?
A: did not affect the translation

Q: And the “activity on RPL27[1:32]-GFP translation (in words)” value [4]?
A: inhibited the translation

Q: What about the IC50 ([5]; PCSK9-FS[1:33]-GFP template, triplicate, undetectable IC50 marked >300) of the same compound?
A: > 300 µM

Q: What about the “activity on PCSK9-FS[1:33]-GFP translation (in words)” value ([5]; frameshift control) of the same compound?
A: did not affect the translation

Q: What about the “relative potency on MST1[1:39]-GFP versus PCSK9[1:33]-GFP and RPL27[1:32]-GFP translation (in words)” value [6] of the same compound?
A: more potently inhibits
